# What was measured:
# Type in all cases: in vivo
# [1] = test system: soybean (Glycine max); assay: Test A preemergence soil spray, visual injury rating 0-100; conditions: 10 days
# Outline: (§1)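 Seeds sown in loam-sand blend got a preemergence directed soil spray, or emerged plants (2-10 cm, one- to two-leaf) got a postemergence spray, of compound in non-phytotoxic solvent with surfactant. After 10 days in greenhouse, injury rated visually versus untreated controls on a 0 (no effect) to 100 (complete control) scale.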
# [2] = test system: ragweed (common ragweed, Ambrosia artemisiifolia); assay: as above; conditions: 10 days
# Outline: as §1
# [3] = test system: green foxtail (Setaria viridis); assay: as above; conditions: 10 days
# Outline: as §1
# [4] = test system: barnyardgrass (Echinochloa crus-galli); assay: as above; conditions: 10 days
# Outline: as §1
# [5] = test system: ryegrass, Italian (italian ryegrass, Lolium multiflorum); assay: as above; conditions: 10 days
# Outline: as §1
# [6] = test system: wheat (Triticum aestivum); assay: as above; conditions: 10 days
# Outline: as §1
# [7] = test system: kochia (Bassia scoparia); assay: as above; conditions: 10 days
# Outline: as §1
# [8] = test system: blackgrass (Alopecurus myosuroides); assay: as above; conditions: 10 days
# Outline: as §1
# [9] = test system: oat, wild (wild oat, Avena fatua); assay: as above; conditions: 10 days
# Outline: as §1
# [10] = test system: palmer (palmer amaranth, palmer pigweed, Amaranthus palmeri); assay: as above; conditions: 10 days
# Outline: as §1
# [11] = test system: corn (Zea mays); assay: as above; conditions: 10 days
# Outline: as §1
# [12] = test system: horseweed (Erigeron canadensis); assay: Test A postemergence application, visual injury rating 0-100
# Outline: as §1
# [13] = test system: soybean (Glycine max); assay: as above
# Outline: as §1
# [14] = test system: ragweed (common ragweed, Ambrosia artemisiifolia); assay: as above
# Outline: as §1
# [15] = test system: green foxtail (Setaria viridis); assay: as above
# Outline: as §1
# [16] = test system: barnyardgrass (Echinochloa crus-galli); assay: as above
# Outline: as §1
# [17] = test system: ryegrass, Italian (italian ryegrass, Lolium multiflorum); assay: as above
# Outline: as §1
# [18] = test system: wheat (Triticum aestivum); assay: as above
# Outline: as §1
# [19] = test system: kochia (Bassia scoparia); assay: as above
# Outline: as §1
# [20] = test system: blackgrass (Alopecurus myosuroides); assay: as above
# Outline: as §1
# [21] = test system: galium (catchweed bedstraw, Galium aparine); assay: as above; conditions: Postemergence, 16 g ai/ha, greenhouse 10 days; 0 no effect, 100 complete control
# Outline: as §1
# [22] = test system: oat, wild (wild oat, Avena fatua); assay: as above
# Outline: as §1
# [23] = test system: palmer (palmer amaranth, palmer pigweed, Amaranthus palmeri); assay: as above
# Outline: as §1
# [24] = test system: corn (Zea mays); assay: as above
# Outline: as §1
# [25] = test system: ducksalad (Heteranthera limosa); assay: Test B flooded paddy test, visual plant response rating 0-100; conditions: 250 g ai/ha, Flood, applied to paddy water, evaluated after 13 days
# Outline: (§2)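 Each species was raised to two leaves before flooding to a 3 cm depth and dosing the water with compound. Injury was assessed by eye after 13 days under greenhouse conditions.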
# [26] = test system: sedge, umbrella (small-flower umbrella sedge, Cyperus difformis); assay: as above; conditions: 250 g ai/ha, Flood, applied to paddy water, evaluated after 13 days
# Outline: as §2
# [27] = test system: barnyardgrass (Echinochloa crusgalli); assay: as above; conditions: 250 g ai/ha, Flood, applied to paddy water, evaluated after 13 days
# Outline: as §2
# [28] = test system: rice (Oryza sativa); assay: as above; conditions: 250 g ai/ha, Flood, applied to paddy water, evaluated after 13 days
# Outline: as §2
# [29] = 62 g ai/ha, 0 = no effect, 100 = complete control
# [30] = 62 g ai/ha, postemergence, 10 days, 0 = no effect, 100 = complete control
# [31] = Postemergence, 16 g ai/ha, greenhouse 10 days, 0 no effect, 100 complete control
compound,measurement,setting,value
CC1(C(=O)NC2CC=C(C(=O)OCC(F)F)C2)CN(c2cc(Cl)cc(Cl)c2)C(=O)O1 (stereo not drawn) [Compound 154],Soybean plant response rating,"[1]; 16 g ai/ha, 0 to 100 scale",0
same,Soybean plant response rating (0-100),[1]; [29],50
same,Ragweed plant response rating,"[2]; 16 g ai/ha, 0 to 100 scale",0
same,Ragweed plant response rating (0-100),[2]; [29],50
same,"Foxtail, Green plant response rating","[3]; 16 g ai/ha, 0 to 100 scale",40
same,"Foxtail, Green plant response rating (0-100)",[3]; [29],90
same,Barnyardgrass plant response rating,"[4]; 16 g ai/ha, 0 to 100 scale",30
same,Barnyardgrass plant response rating (0-100),[4]; [29],90
same,"Ryegrass, Italian plant response rating","[5]; 16 g ai/ha, 0 to 100 scale",30
same,"Ryegrass, Italian plant response rating (0-100)",[5]; [29],80
same,Wheat plant response rating,"[6]; 16 g ai/ha, 0 to 100 scale",10
same,Wheat plant response rating (0-100),[6]; [29],60
same,Kochia plant response rating,"[7]; 16 g ai/ha, 0 to 100 scale",20
same,Kochia plant response rating (0-100),[7]; [29],90
same,Blackgrass plant response rating,"[8]; 16 g ai/ha, 0 to 100 scale",0
same,Blackgrass plant response rating (0-100),[8]; [29],0
same,"Oat, Wild plant response rating","[9]; 16 g ai/ha, 0 to 100 scale",0
same,"Oat, Wild plant response rating (0-100)",[9]; [29],20
same,"Pigweed, Palmer plant response rating","[10]; 16 g ai/ha, 0 to 100 scale",60
same,"Pigweed, Palmer plant response rating (0-100)",[10]; [29],100
same,Corn plant response rating,"[11]; 16 g ai/ha, 0 to 100 scale",20
same,Corn plant response rating (0-100),[11]; [29],30
same,Horseweed plant response rating (0-100),[12]; [30],70
same,Horseweed plant response rating (0 to 100 scale),[12]; [31],70
same,Soybean plant response rating (0-100),[13]; [30],60
same,Soybean plant response rating (0 to 100 scale),[13]; [31],60
same,Ragweed plant response rating (0-100),[14]; [30],90
same,Ragweed plant response rating (0 to 100 scale),[14]; [31],40
same,"Foxtail, Green plant response rating (0-100)",[15]; [30],90
same,"Foxtail, Green plant response rating (0 to 100 scale)",[15]; [31],80
same,Barnyardgrass plant response rating (0-100),[16]; [30],100
same,Barnyardgrass plant response rating (0 to 100 scale),[16]; [31],100
same,"Ryegrass, Italian plant response rating (0-100)",[17]; [30],80
same,"Ryegrass, Italian plant response rating (0 to 100 scale)",[17]; [31],60
same,Wheat plant response rating (0-100),[18]; [30],90
same,Wheat plant response rating (0 to 100 scale),[18]; [31],70
same,Kochia plant response rating (0-100),[19]; [30],90
same,Kochia plant response rating (0 to 100 scale),[19]; [31],90
same,Blackgrass plant response rating (0-100),[20]; [30],0
same,Blackgrass plant response rating (0 to 100 scale),[20]; [31],0
same,Galium plant response rating (0 to 100 scale),[21],50
same,"Oat, Wild plant response rating (0-100)",[22]; [30],90
same,"Oat, Wild plant response rating (0 to 100 scale)",[22]; [31],20
same,"Pigweed, Palmer plant response rating (0-100)",[23]; [30],90
same,"Pigweed, Palmer plant response rating (0 to 100 scale)",[23]; [31],90
same,Corn plant response rating (0-100),[24]; [30],100
same,Corn plant response rating (0 to 100 scale),[24]; [31],100
same,"Plant response rating, Ducksalad (0 to 100 scale, 0 is no effect and 100 is complete control)",[25],70
same,"Plant response rating, Sedge, Umbrella (0 to 100 scale, 0 is no effect and 100 is complete control)",[26],95
same,"Plant response rating, Barnyardgrass (0 to 100 scale, 0 is no effect and 100 is complete control)",[27],98
same,"Plant response rating, Rice (0 to 100 scale, 0 is no effect and 100 is complete control)",[28],95

# From patent US20260285850A1, “SUBSTITUTED OXAZOLIDINONES AND IMIDAZOLINONES AS HERBICIDES” (FMC CORPORATION, priority 2023, published 2026)
